Patent US12721833B2, “Small molecule anticancer agents, combinations and uses thereof” (University of Florida Research Foundation, Incorporated, priority 2020, dated 2026)

Legend:
[1] = tested on: DR4, DR5, EGFR, GRP78, AGR2, XBP1s in MDA-MB-468 cells; assay: Immunoblots in MDA-MB-468 cells (FIG. 9, FIG. 10); type: cell-based; settings: for DR5 expression / ER-stress induced proteins GRP78 and AGR2: MDA-MB-468 cells (FIG. 9); for potency vs tcyDTDO in upregulating and oligomerizing DR4 and DR5 and increasing XBP1s, GRP78, and AGR2 / disulfide bond-dependent oligomerization of DR4, DR5, and EGFR: MDA-MB-468 cells; for potency vs tcyDTDO in upregulating and oligomerizing DR4 and DR5 and increasing XBP1s, GRP78, and AGR2: 2.5 mM (FIG. 10); for disulfide bond-dependent oligomerization of DR4, DR5, and EGFR: at the concentrations that induce cancer cell death (FIG. 9)
EGFR and HER2 = EGFR and HER2 levels in patient-derived breast cancer cells (FIG. 4A); type: cell-based; settings: patient-derived cells from a TNBC (HCI-001) and a drug resistant, metastatic, HER2+ breast cancer (HCI-012/MLR)
[2] = tested on: DR4, DR5, HER3 oligomerization and Akt phosphorylation; assay: Immunoblot analysis in MDA-MB-468 TNBC and BT474 HER2+ lines (FIG. 2B); type: cell-based; settings: the two compounds similar
MDA-MB-468 cells = assay: MTT cell viability assay; type: cell-based; settings: for potency of cytotoxicity relative to tcyDTDO: MDA-MB-468 breast cancer cells, compared with tcyDTDO; for effect on cell viability: MDA-MB-468 cells, increasing concentrations (FIG. 7)
Description: (§1) MTT cell viability is evaluated using MTT (3-(4,5-dimethylthiazol-2-yl)-2,5-diphenyltetrazolium bromide) assays carried out based on the manufacturer's instructions (kit CGD1, Sigma-Aldrich, St. Louis, MO).

[3] = tested on: DR4, DR5, and EGFR oligomerization; assay: Immunoblot with inhibitors of ER acetyltransferases (FIG. 3C); type: cell-based
AGR2 = target: T1, AGR2 (Homo sapiens, UniProt O95994); assay: Protein thiolate reactivity assay: biotin-tagged DDA binding to AGR2, with competitors; settings: competition with DDAs
T1 sequence (O95994 21-175): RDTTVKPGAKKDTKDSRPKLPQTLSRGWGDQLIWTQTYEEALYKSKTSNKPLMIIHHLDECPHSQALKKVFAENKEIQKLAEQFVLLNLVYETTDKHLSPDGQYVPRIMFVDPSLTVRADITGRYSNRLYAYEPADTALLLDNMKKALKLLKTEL
Description: To measure DDA and NSC322072 covalent binding to AGR2, purified, recombinant AGR2 is incubated with a biotin-tagged DDA compound for 1 h at 37° C. in the presence or absence of non-biotinylated competitor DDAs or NSC322072. Reaction mixtures are boiled with SDS-PAGE sample buffer supplemented with 100 mM N-ethylmaleimide for ca. 10 minutes to block free thiolate groups remaining after the reaction. Conjugation of AGR2 by DDAs is measured by evaluating AGR2 modification in the modified immunoblot assay in Example 16.
Samples from the biotin-DDA/AGR2 reactions (Example 14) are resolved by non-reducing SDS-PAGE and transferred to nitrocellulose membranes. The membranes are blocked and analyzed by immunoblot with antibodies to AGR2 to verify addition of AGR2 protein to the assays. Anti-AGR2 primary antibody is detected with an Alkaline Phosphatase-conjugated secondary antibody. Separate, replicate membranes are probed with Streptavidin-Alkaline phosphatase. […] Both the AGR2 immunoblots and the Streptavidin-Alkaline phosphatase blots are detected using the standard Alkaline Phosphatase detection compounds, Bromo-chloro-indoyl Phosphate (BCIP)/Nitroblue Tetrazolium (NBT).

breast cancer cell lines = assay: Cell viability assays in breast cancer cell lines (FIG. 2C, FIG. 3B); type: cell-based; settings: increasing concentrations
Description: as §1

pancreatic PDX tumors = assay: Treatment of mice bearing pancreatic PDX tumors (FIG. 4B); type: in vivo; settings: separation of cancer cells from stroma and pancreatic cancer cell death
[4] = tested on: human breast tumors growing in rodent models; settings: cited from earlier work

Structure (SMILES) | DR5 expression [1] | ER-stress induced proteins GRP78 and AGR2 [1] | potency vs tcyDTDO in upregulating and oligomerizing DR4 and DR5 and increasing XBP1s, GRP78, and AGR2 [1] | disulfide bond-dependent oligomerization of DR4, DR5, and EGFR [1] | EGFR and HER2 levels (EGFR and HER2) | Akt phosphorylation [2] | DR4, DR5, and HER3 oligomerization [2] | potency of cytotoxicity relative to tcyDTDO (MDA-MB-468 cells) | effect on cell viability (MDA-MB-468 cells) | further results
CO[C@H]1C[C@@H]2CS(=O)(=O)SC[C@H]2C[C@@H]1OC (racemic) [DMtcyDTDO, (4aS,6S,7S,8aS)- and (4aR,6R,7R,8aR)-6,7-Dimethoxyoctahydrobenzo [d][1,2]dithiine 2,2-dioxide] | upregulate DR5 | increase the ER-stress induced proteins GRP78 and AGR2 | more potent than tcyDTDO | induce disulfide bond-dependent oligomerization of DR4, DR5, and EGFR | decrease EGFR and HER2 levels | decrease Akt phosphorylation | increase DR4, DR5, and HER3 oligomerization | 2 fold | decrease the viability of the cancer cell lines in a concentration-dependent manner | potency relative to TcyDTDO (MDA-MB-468 cells; FIG. 1B legend, test not stated there): twice as potent as TcyDTDO
O=S1(=O)CC2CC(F)C(F)CC2CS1 (racemic) [dFtcyDTDO, (4aS,6S,7S,8aS)- and (4aR,6R,7R,8aR)-6,7-Difluorooctahydrobenzo[d][1,2]dithiine 2,2-dioxide] | upregulate DR5 | increase the ER-stress induced proteins GRP78 and AGR2 | more potent than tcyDTDO | induce disulfide bond-dependent oligomerization of DR4, DR5, and EGFR |  |  |  | 2 fold | decrease the viability of the cancer cell lines in a concentration-dependent manner | 
CNC(=O)Nc1ccc2c(c1)CC[C@@]21OC(=O)N(CC(=O)N(Cc2ccc(F)cc2)[C@@H](C)C(F)(F)F)C1=O [A-485] |  |  |  |  |  |  |  |  |  | DR4, DR5, and EGFR oligomerization [3]: without effect
CCCCCC(C[N+]1(C)CCOCC1)C(=O)/C=C/c1ccccc1.[Br-] (stereo not drawn) [NSC322072] |  |  |  |  | decrease EGFR and HER2 levels | decrease Akt phosphorylation | increase DR4, DR5, and HER3 oligomerization |  |  | binding site on AGR2 (competition experiments) (AGR2): bind to the same site on AGR2; effect on cell viability (breast cancer cell lines): decrease the viability of three different breast cancer cell lines in a concentration-dependent manner
O=S1(=O)CC2CCCCC2CS1 (stereo not drawn) [TcyDTDO] |  |  |  |  |  |  |  |  |  | effect on pancreatic PDX tumors (H&E) (pancreatic PDX tumors): causes disintegration of the tumors; in vivo anticancer activity [4]: established in vivo anticancer activity
